Assay results published in patent US7652031B2, “Compounds which mimic the chemical and biological properties of discodermolide” (priority 2001, dated 2010).
Read-outs that look alike come from different tables or passages of the source.

Columns and labels:
[1] = tested on: microtubule protein (MTP); assay: In vitro tubulin polymerization assay (turbidity at 350 nm); assay type: biochemical, calf; conditions: for induction of tubulin assembly in the absence of GTP / extent of polymerization after 100 min / initial slope (0-5 min), slope for (+)-discodermolide assigned 1.0: 10 μM; for induction of tubulin assembly in the absence of GTP: 37° C.; for extent of polymerization after 100 min: turbidity; for initial slope (0-5 min), slope for (+)-discodermolide assigned 1.0: first 5 min, relative to (+)-discodermolide; for stability of the microtubules formed against calcium-induced depolymerization: microtubules formed in the presence of the compound
Description: (§1) All drugs were dissolved in sterile DMSO and stored at −20° C. Microtubule protein (MTP) was purified by 2 cycles of temperature-dependent assembly-disassembly from calf brain and stored in liquid nitrogen. See, for example, Welsenberg, R. C., “Microtubule formation in vitro in solutions containing low calcium concentrations”, Science, 1972, 177, 1104-1105.
Microtubule polymerization was evaluated by recording the change in turbidity of MTP at 350 nm for 100 min in a spectrophotometer (UVIKON, Research Instruments Int., San Diego, Calif.). See, for example, Shelanski, M. L., et al., “Microtuble assembly in the absence of added nucleotides”, Proc. Natl. Acad. Sci. USA, 1973, 70, 765-768. Purified MTP was diluted in assembly buffer containing 0.1 M MES, I mM EGTA, 0.5 mM MgCl2, and 3 M glycerol (pH 6.6) to a final concentration of 1 mg/ml. All compounds were evaluated at a concentration of 10 μM at 37° C. in the absence of GTP. The changes in absorption that occurred during the first 5 min were used to plot initial slopes from the linear portion of each curve in order to compare the initial activity of each compound.
The activities of Taxol, (+)-discodermolide, and several structural analogs were determined in the foregoing in vitro tubulin polymerization assay that measures changes in absorbance that correlate with the extent of microtubule polymerization. It will be appreciated that microtubule polymerization involves both nucleation (initiation) and elongation steps. The initial rates of polymerization reflect the nucleation process. See, for example, Gaskin, F., et al. “Turbidimetric studies of the in vitro assembly and disassembly of porcine neurotubules”, J. Mol. Biol., 1974, 89, 737-758.

[2] = tested on: microtubule protein (MTP); assay: Electron microscopy of microtubules from the in vitro polymerization assay; assay type: biochemical, calf; conditions: for Average Polymer Length (μm): microtubule lengths after assembly, minimum of 50 microtubules
Description: Aliquots (50 μL) were taken from the in vitro polymerization assay at the end of the reaction and placed onto 300-mesh carbon-coated, Formavar-treated copper grids. Samples were then stained with 20 μL of 2% uranyl acetate and viewed with a JEOL model 100CX electron microscope. To determine the lengths of the microtubules, electron micrograph negatives were scanned and then analyzed using IP Lab software. Measurements were performed on negatives at ×10000 and ×50000, with a minimum of 50 microtubules measured for each compound.
The microtubule protein from each in vitro assay was examined by electron microscopy to confirm that normal microtubules were formed in the presence of the compounds. In all cases, except for the DMSO control, microtubules were observed. […] Table 1 provides a comparison of microtubule lengths after assembly with Taxol, discodermolide and analogs I-i, I-ii, I-iii, and I-iv.

microtubules = assay: Drug binding competition assay ([3H]Taxol binding to preformed microtubules); design: species or system calf
Description: as §1
The assay was performed using methods described in Bollag, D. M., et al., “Epothilones, a new class of microtubule-stabilizing agents with a Taxol-like mechanism of action”, Cancer-Res., 1995, 55, 2325-2333 and He, L., et al., “A common pharmacophore for Taxol and the epothilones based on the biological activity of a taxane molecule lacking a C-13 side chain”, Biochemistry, 2000, 39, 3972-3978. MTP (0.4 mg/ml) was incubated at 37° C. with 1 mM GTP and […] Taxol for 20 min to induce the assembly of microtubules. One hundred nanomolar [^3H]Taxol (specific activity: 19.3 Ci/mmol) and the indicated concentration of the competing agent were added simultaneously to the preformed microtubules. The mixtures were further incubated at 37° C. for 30 min to allow binding of [^3H]Taxol. Microtubules were collected by ultracentrifugation (100,000 g, 1 hr, 30° C.) and the radioactivity measured using a liquid scintillation counter. The inhibition of binding of [^3H]Taxol to microtubules was expressed as a percentage compared to the control (100%).

A549 cells [3] = assay: Cytotoxicity assay, A549 cells; assay type: cell-based, human
Description: The A549 lung carcinoma cell line was maintained as described in Kavallaris, M., et al., “Taxol-resistant epithelial ovarian tumors are associated with altered expression of specific β-tubulin isotypes”, J. Clin. Invest., 1997, 100, 1282-1293.
(§2) A549 cells were seeded in triplicate at a density of 1×10^4 cells/ml in 6-well plates and allowed to attach for 24 h. After incubation with various drug concentrations for 72 h, adherent cells were trypsinized and counted (Coulter Counter model Z1; Coulter Corp., Miami, Fla.), and the IC50 was determined. SKOV3 cells were seeded at a density of 2×10^4 cells/ml and the above procedure followed.

SKOV3 cells = assay: Cytotoxicity assay, SKOV3 cells; assay type: cell-based, human
Description: The SKOV3 ovarian carcinoma cell line was obtained from Dr. V. Ling and was maintained as described in McDaid, H. M., et al., “Structure-activity profiles of eleutherobin analogs and their cross-resistance in Taxol-resistant cell lines”, Cancer Chemother. Pharmacol., 1999, 44, 131-137.
as §2

A549 cells [4] = assay: Flow cytometry (cell cycle), A549 cells; assay type: cell-based, human; conditions: 24 h
A549 cells [5] = assay: Immunofluorescence (microtubules, DNA), A549 cells; assay type: cell-based, human
Description: In addition, cells were stained with Hoescht solution (Sigma; 1:2.5 dilution) for 15 min after the secondary antibody wash. Slides were analyzed using a Zeiss Axiophot microscope (rhodamine and DAPI filters) at ×100 magnification.

murine splenocytes [6] = conditions: in vitro; cited from earlier work
murine splenocytes [7] = conditions: in vitro, cited from earlier work
F1 recipient mice = conditions: cited from earlier work
tubulin [8] = conditions: cited from earlier work
tubulin [9] = conditions: cited from earlier work; remark: listed apart in the source
MCF-7 cells = conditions: cited from earlier work
[10] = tested on: human carcinoma cell lines; conditions: in cells; cited from earlier work
[11] = (+)-discodermolide 25 nM, analogs at different cytotoxic concentrations

## C=C/C=C\[C@H](C)[C@H](OC(N)=O)[C@@H](C)[C@H](O)[C@@H](C)C/C(C)=C\[C@H](C)[C@@H](O)[C@@H](C)/C=C\[C@@H](O)C[C@@H]1OC(=O)[C@H](C)[C@@H](O)[C@H]1C (single isomer, unassigned) [(+)-discodermolide]
[1]
  induction of tubulin assembly in the absence of GTP: induced tubutin assembly in the absence of GTP
  extent of polymerization after 100 min: essentially the same
  initial slope (0-5 min), slope for (+)-discodermolide assigned 1.0: 1.0
  stability of the microtubules formed against calcium-induced depolymerization: stable against calcium-induced depolymerzation
[1]; end of assay, 100,000 g for 30 min
  level of polymerization by protein content in the supernatant: comparable
[2]; electron microscopy
  microtubule length compared with GTP or Taxol: much shorter microtubules
[2]
  Average Polymer Length (μm): 0.78 ± 0.3 μm
microtubules; 1 μM competing agent
  inhibition of binding of [3H]Taxol to microtubules: very similar inhibition
microtubules; 10 μM competing agent
  inhibition of binding of [3H]Taxol to microtubules: approximately 45%
microtubules; 100 μM competing agent
  inhibition of binding of [3H]Taxol to microtubules: ~95%
A549 cells [3]
  inhibition of the proliferation of A549 cells: inhibited the proliferation of A549 cells
A549 cells [3]; Homo sapiens, A549, 72 h, read-out: A549 (IC50(μm))
  IC50: 3.8 nM
SKOV3 cells; Homo sapiens, SK-OV-3, 72 h, read-out: SKOV3 (IC50(μm))
  IC50: 31.3 ± 6.8 nM
SKOV3 cells; SKOV3 vs A549
  less active in SKOV3 compared to A549 cells: approximately 8 fold
A549 cells [4]; 25 nM
  hypodiploid population of cells (apoptosis): increase in the hypodiploid population of cells
A549 cells [4]; [11]
  cell cycle block in G2/M phase: blocked in the G2/M phase of the cell cycle
A549 cells [5]
  location of microtubule bundles in the cells: at the periphery of the cells
A549 cells [5]; [11]
  microtubule bundles and condensed nuclear DNA: Microtubule bundles and condensed nuclear DNA appeared
A549 cells [5]; effect seen at 25 nM and above
  concentrations at which bundles and condensed DNA were not seen: below 12 nM
Murine splenocytes [6]
  suppression of the two-way mixed-lymphocyte reaction: suppresses
Murine splenocytes [7]
  suppression of concanavalin A-induced mitogenesis: suppresses
Murine splenocytes [7]; mixed-lymphocyte reaction and mitogenesis assays
  cytotoxicity associated with the suppression: no associated cytotoxicity
F1 recipient mice; compared with cyclosporin A and FK506
  potency in graft-vs.-host splenomegaly response: intermediate between those of cyclosporin A and FK506
F1 recipient mice; injection of parental splenocytes into F1 recipient mice
  suppression of graft-vs.-host splenomegaly response: suppresses
Tubulin [8]; listed as 1
  binding affinity compared with Taxol: much higher
Tubulin [8]; listed as (+)-discoderrnolide
  binding affinity compared with Taxol: higher affinity for tubulin
Tubulin [9]
  potency at nucleating tubulin assembly compared to Taxol: more potent
MCF-7 cells
  potency at inducing microtubule bundles compared to Taxol: more potent
[10]
  cytotoxicity compared with Taxol: less cytotoxic than Taxol

## CC(=O)O[C@H]1C(=O)[C@@]2(C)[C@H]([C@H](OC(=O)c3ccccc3)[C@]3(O)C[C@H](OC(=O)[C@H](O)[C@@H](NC(=O)c4ccccc4)c4ccccc4)C(C)=C1C3(C)C)[C@]1(OC(C)=O)CO[C@@H]1C[C@@H]2O [Taxol]
[1]
  induction of tubulin assembly in the absence of GTP: induced tubutin assembly in the absence of GTP
  extent of polymerization after 100 min: essentially the same
  initial slope (0-5 min), slope for (+)-discodermolide assigned 1.0: 0.28
  stability of the microtubules formed against calcium-induced depolymerization: stable against calcium-induced depolymerzation
[2]
  Average Polymer Length (μm): 3.3 ± 1.2 μm
microtubules; 1 μM competing agent
  inhibition of binding of [3H]Taxol to microtubules: very similar inhibition
microtubules; 10 μM competing agent
  inhibition of binding of [3H]Taxol to microtubules: approximately 45%
microtubules; 100 μM competing agent
  inhibition of binding of [3H]Taxol to microtubules: 80%
A549 cells [5]
  location of microtubule bundles in the cells: throughout the cells
